Columns and labels:
Assay type in all cases: cell-based
Saccharomyces cerevisiae = assay: Antimicrobial activity (MIC); conditions: Strain ID DSM 2548; potato dextrose broth pH 3.8
[1] = test system: Lactobacillus plantarum ssp. plantarum; assay: Antimicrobial activity (MIC); conditions: Strain ID DSM 20174; potato dextrose broth pH 3.8
[2] = test system: Salmonella enterica ssp. enterica Ser. typhimurium; assay: Antimicrobial activity (MIC); conditions: Strain ID DSM 17058; potato dextrose broth pH 3.8
Alternaria alternata = assay: Antimicrobial activity (MIC); conditions: Strain ID DSM 12633; potato dextrose broth pH 3.8
Corynebacterium xerosis = assay: Antimicrobial activity (MIC); conditions: Strain ID DSM 20743; potato dextrose broth pH 3.8
Zygosaccharomyces rouxii = assay: Antimicrobial activity (MIC); conditions: Strain ID DSM 7525; potato dextrose broth pH 3.8
Listeria monocytogenes = assay: Antimicrobial activity (MIC); conditions: Strain ID DSM 20600; potato dextrose broth pH 3.8
Pseudomonas aeruginosa = assay: Antimicrobial activity (MIC); conditions: Strain ID DSM 1117; potato dextrose broth pH 3.8
Candida parapsilosis = assay: Antimicrobial activity (MIC); conditions: Strain ID ATCC 20384; potato dextrose broth pH 3.8
Staphylococcus aureus = assay: Antimicrobial activity (MIC); conditions: Strain ID DSM 2569; potato dextrose broth pH 3.8
[3] = test system: Phanerochaete chrysosporium; assay: Antimicrobial activity (MIC); conditions: Strain ID DSM 1556; potato dextrose broth pH 3.8
Clostridium sporogenes = assay: Antimicrobial activity (MIC); conditions: Strain ID ATCC 19404; potato dextrose broth pH 3.8
Actinomyces viscosus = assay: Antimicrobial activity (MIC); conditions: Strain ID DSM43798; potato dextrose broth pH 3.8
Zygosaccharomyces bailii = assay: Antimicrobial activity (MIC); conditions: Strain ID DSM 70834; potato dextrose broth pH 3.8
Streptococcus mutans = assay: Antimicrobial activity (MIC); conditions: Strain ID DSM 20523; potato dextrose broth pH 3.8
[4] = test system: Fusobacterium nucleatum subsp. vincentii; assay: Antimicrobial activity (MIC); conditions: Strain ID DSM 19507; potato dextrose broth pH 3.8
[5] = test system: Leuconostoc mesenteroides ssp. mesenteroides; assay: Antimicrobial activity (MIC); conditions: Strain ID DSM 20343; potato dextrose broth pH 3.8
[6] = test system: Alicyclobacillus acidoterrestris; assay: Antimicrobial activity (MIC); conditions: Strain ID DSM 2498; potato dextrose broth pH 3.8
Cutibacterium acnes = assay: Antimicrobial activity (MIC); conditions: Strain ID DSM 1897; potato dextrose broth pH 3.8
Malassezia furfur = assay: Antimicrobial activity (MIC); conditions: Strain ID DSM 6170; potato dextrose broth pH 3.8
Aspergillus brasiliensis = assay: Antimicrobial activity (MIC); conditions: Strain ID DSM 1988; potato dextrose broth pH 3.8
Pseudomonas fluorescens = assay: Antimicrobial activity (MIC); conditions: Strain ID DSM50337; potato dextrose broth pH 3.8
Bacillus cereus = assay: Antimicrobial activity (MIC); conditions: Strain ID DSM4490; potato dextrose broth pH 3.8
[7] = test system: Pasteurella multocida ssp. multocida; assay: Antimicrobial activity (MIC); conditions: Strain ID DSM 16031; potato dextrose broth pH 3.8
Byssochlamys fulva = assay: Antimicrobial activity (MIC); conditions: Strain ID DSM 1808; potato dextrose broth pH 3.8
[8] = test system: Cladosporium cladosporioides; assay: Antimicrobial activity (MIC); conditions: Strain ID DSM19653; potato dextrose broth pH 3.8
Porphyromonas gingivalis = assay: Antimicrobial activity (MIC); conditions: Strain ID DSM 20709; potato dextrose broth pH 3.8
Penicillium expansum = assay: Antimicrobial activity (MIC); conditions: Strain ID DSM 62841; potato dextrose broth pH 3.8
Campylobacter jejuni = assay: Antimicrobial activity (MIC); conditions: Strain ID DSM 4688; potato dextrose broth pH 3.8
Yarrowia lipolytica = assay: Antimicrobial activity (MIC); conditions: Strain ID DSM 70561; potato dextrose broth pH 3.8
Enterococcus faecalis = assay: Antimicrobial activity (MIC); conditions: Strain ID ATCC 7080; potato dextrose broth pH 3.8
Bacillus licheniformis = assay: Antimicrobial activity (MIC); conditions: Strain ID DSM 13; potato dextrose broth pH 3.8
Botrytis cinerea = assay: Antimicrobial activity (MIC); conditions: Strain ID DSM 5145; potato dextrose broth pH 3.8
[9] = test system: Gluconacetobacter liquefaciens; assay: Antimicrobial activity (MIC); conditions: Strain ID DSM 5603; potato dextrose broth pH 3.8
Candida albicans = assay: Antimicrobial activity (MIC); conditions: Strain ID ATCC10231; potato dextrose broth pH 3.8
[10] = test system: Brettanomyces naardenensis; assay: Antimicrobial activity (MIC); conditions: Strain ID CBS 6115; potato dextrose broth pH 3.8
Leuconostoc lactis = assay: Antimicrobial activity (MIC); conditions: Strain ID DSM 20202; potato dextrose broth pH 3.8
Enterobacter cloacae = assay: Antimicrobial activity (MIC); conditions: Strain ID DSM 6234; potato dextrose broth pH 3.8
Clostridium perfringens = assay: microbe, parasite or virus in culture; conditions: Strain ID DSM 756; potato dextrose broth pH 3.8
[11] = test system: Lactobacillus paracasei ssp. paracasei; assay: Antimicrobial activity (MIC); conditions: Strain ID DSM 46331; potato dextrose broth pH 3.8

| Compound | Minimal Inhibitory Concentration (MIC) (Saccharomyces cerevisiae) [mg/L] | Minimal Inhibitory Concentration (MIC) [1] [mg/L] | Minimal Inhibitory Concentration (MIC) [2] [mg/L] | Minimal Inhibitory Concentration (MIC) (Alternaria alternata) [mg/L] | Minimal Inhibitory Concentration (MIC) (Corynebacterium xerosis) [mg/L] | Minimal Inhibitory Concentration (MIC) (Zygosaccharomyces rouxii) [mg/L] | Minimal Inhibitory Concentration (MIC) (Listeria monocytogenes) [mg/L] | Minimal Inhibitory Concentration (MIC) (Pseudomonas aeruginosa) [mg/L] | Minimal Inhibitory Concentration (MIC) (Candida parapsilosis) [mg/L] | Minimal Inhibitory Concentration (MIC) (Staphylococcus aureus) [mg/L] | Minimal Inhibitory Concentration (MIC) [3] [mg/L] | Minimal Inhibitory Concentration (MIC) (Clostridium sporogenes) [mg/L] | Minimal Inhibitory Concentration (MIC) (Actinomyces viscosus) [mg/L] | Minimal Inhibitory Concentration (MIC) (Zygosaccharomyces bailii) [mg/L] | Minimal Inhibitory Concentration (MIC) (Streptococcus mutans) [mg/L] | Minimal Inhibitory Concentration (MIC) [4] [mg/L] | Minimal Inhibitory Concentration (MIC) [5] [mg/L] | Minimal Inhibitory Concentration (MIC) [6] [mg/L] | Minimal Inhibitory Concentration (MIC) (Cutibacterium acnes) [mg/L] | Minimal Inhibitory Concentration (MIC) (Malassezia furfur) [mg/L] | other results |
| --- | --- | --- | --- | --- | --- | --- | --- | --- | --- | --- | --- | --- | --- | --- | --- | --- | --- | --- | --- | --- | --- |
| C[C@@H]1O[C@@H](O[C@H]2[C@H](O[C@H]3CC[C@@]4(C)C(CC[C@]5(C)[C@@H]4CC=C4[C@H]6CC(C)(C)CC[C@]6(C(=O)O)CC[C@]45C)C3(C)CO)OC[C@H](O)[C@@H]2O[C@@H]2OC[C@H](O)[C@H](O)[C@H]2O)[C@H](O)[C@H](O)[C@H]1O (some centres unmarked) [B, Clemontanoside C [80666-65-5]] | > 80 | 400 | > 80 | > 80 | > 80 | 500 | > 80 | > 80 | > 80 | > 80 | > 80 | 80 | > 80 | > 80 | > 80 | > 80 | > 80 | 140 | > 80 | 80 | Minimal Inhibitory Concentration (MIC) (Aspergillus brasiliensis): > 80 mg/L; Minimal Inhibitory Concentration (MIC) (Pseudomonas fluorescens): > 80 mg/L; Minimal Inhibitory Concentration (MIC) (Bacillus cereus): > 80 mg/L; Minimal Inhibitory Concentration (MIC) [7]: > 80 mg/L; Minimal Inhibitory Concentration (MIC) (Byssochlamys fulva): > 80 mg/L; Minimal Inhibitory Concentration (MIC) [8]: > 80 mg/L; Minimal Inhibitory Concentration (MIC) (Porphyromonas gingivalis): > 80 mg/L; Minimal Inhibitory Concentration (MIC) (Penicillium expansum): >500 mg/L; Minimal Inhibitory Concentration (MIC) (Campylobacter jejuni): > 80 mg/L; Minimal Inhibitory Concentration (MIC) (Yarrowia lipolytica): > 80 mg/L; Minimal Inhibitory Concentration (MIC) (Enterococcus faecalis): > 80 mg/L; Minimal Inhibitory Concentration (MIC) (Bacillus licheniformis): > 80 mg/L; Minimal Inhibitory Concentration (MIC) (Botrytis cinerea): > 80 mg/L; Minimal Inhibitory Concentration (MIC) [9]: 40 mg/L; Minimal Inhibitory Concentration (MIC) (Candida albicans): > 80 mg/L; Minimal Inhibitory Concentration (MIC) [10]: > 80 mg/L; Minimal Inhibitory Concentration (MIC) (Leuconostoc lactis): > 80 mg/L; Minimal Inhibitory Concentration (MIC) (Enterobacter cloacae): > 80 mg/L; Minimal Inhibitory Concentration (MIC) (Clostridium perfringens): > 80 mg/L; Minimal Inhibitory Concentration (MIC) [11]: > 80 mg/L |
| Transsylvanoside H [C, Transsylvanoside H [174423-50-8]] | > 80 | 40 | > 80 | > 80 | > 80 | 500 | > 80 | > 80 | > 80 | > 80 | > 80 | 80 | > 80 | > 80 | > 80 | 80 | > 80 | 40 | > 80 | > 80 | Minimal Inhibitory Concentration (MIC) (Aspergillus brasiliensis): > 80 mg/L; Minimal Inhibitory Concentration (MIC) (Pseudomonas fluorescens): > 80 mg/L; Minimal Inhibitory Concentration (MIC) (Bacillus cereus): > 80 mg/L; Minimal Inhibitory Concentration (MIC) [7]: > 80 mg/L; Minimal Inhibitory Concentration (MIC) (Byssochlamys fulva): > 80 mg/L; Minimal Inhibitory Concentration (MIC) [8]: > 80 mg/L; Minimal Inhibitory Concentration (MIC) (Porphyromonas gingivalis): > 80 mg/L; Minimal Inhibitory Concentration (MIC) (Penicillium expansum): >500 mg/L; Minimal Inhibitory Concentration (MIC) (Campylobacter jejuni): > 80 mg/L; Minimal Inhibitory Concentration (MIC) (Yarrowia lipolytica): > 80 mg/L; Minimal Inhibitory Concentration (MIC) (Enterococcus faecalis): > 80 mg/L; Minimal Inhibitory Concentration (MIC) (Bacillus licheniformis): > 80 mg/L; Minimal Inhibitory Concentration (MIC) (Botrytis cinerea): > 80 mg/L; Minimal Inhibitory Concentration (MIC) [9]: 140 mg/L; Minimal Inhibitory Concentration (MIC) (Candida albicans): > 80 mg/L; Minimal Inhibitory Concentration (MIC) [10]: > 80 mg/L; Minimal Inhibitory Concentration (MIC) (Leuconostoc lactis): 80 mg/L; Minimal Inhibitory Concentration (MIC) (Enterobacter cloacae): > 80 mg/L; Minimal Inhibitory Concentration (MIC) (Clostridium perfringens): > 80 mg/L; Minimal Inhibitory Concentration (MIC) [11]: > 80 mg/L |

Reference: patent publication EP4316461A1, “A PRESERVATIVE COMPOSITION” (BRAIN Biotech AG, priority 2022, dated 2024)
